The values below come from patent US5945440A, “Indolocarbazole imides and the use thereof” (priority 1992, dated 1999).

Assay [1] concerns the target T1, MLC kinase (myosin light-chain kinase) (Gallus gallus, UniProt P11799).
T1 construct: MLC kinase was purified from chicken stomach; from tissue; host or cells: chicken stomach (gizzard smooth muscle)
As to the kind of experiment: inhibition of MLC kinase, in vitro enzyme test (32P phosphate incorporation). As to conditions: for IC50: 1 nM MLC kinase, 250 μM ATP, pH 7.2, 20 minutes at 30° C., read-out: inhibition of the protein kinases, MLC-kinase IC50; for ratio of IC50 C-kinase/IC50 MLC-kinase: selectivity factor calculated from the IC50 values. The format is biochemical, chicken (stomach).
Experimental: Inhibition of the enzyme MLC kinase (EC 3.6.1.3; kinase of the light myosin chain; myosin light-chain kinase).
The inhibition of MLC kinase was measured in an in vitro enzyme test.
The reaction was initiated by the addition of 1 nM MLC kinase. After incubation for 20 minutes at 30° C., the reaction was stopped with TCA and the samples then filtered off. The phosphate incorporation took place by means of Cerenkov counting of the filter.

The target in another assay is protein kinase C. Put plainly: inhibition of protein kinase C, enzyme test. The format is biochemical. As to conditions: read-out: inhibition of the protein kinases, C-kinase IC50. As for the experimental part: In order to ascertain whether it is a question of a selective inhibition of MLC kinase, the compounds were also investigated in other enzyme tests for protein kinase, including tests for protein kinase C. The results from the PKC test are also given in the following Table I. Furthermore, the Table contains selectivity factors which were calculated by the determination of the ratios of the IC50 values.

T1 sequence (P11799 935-1906): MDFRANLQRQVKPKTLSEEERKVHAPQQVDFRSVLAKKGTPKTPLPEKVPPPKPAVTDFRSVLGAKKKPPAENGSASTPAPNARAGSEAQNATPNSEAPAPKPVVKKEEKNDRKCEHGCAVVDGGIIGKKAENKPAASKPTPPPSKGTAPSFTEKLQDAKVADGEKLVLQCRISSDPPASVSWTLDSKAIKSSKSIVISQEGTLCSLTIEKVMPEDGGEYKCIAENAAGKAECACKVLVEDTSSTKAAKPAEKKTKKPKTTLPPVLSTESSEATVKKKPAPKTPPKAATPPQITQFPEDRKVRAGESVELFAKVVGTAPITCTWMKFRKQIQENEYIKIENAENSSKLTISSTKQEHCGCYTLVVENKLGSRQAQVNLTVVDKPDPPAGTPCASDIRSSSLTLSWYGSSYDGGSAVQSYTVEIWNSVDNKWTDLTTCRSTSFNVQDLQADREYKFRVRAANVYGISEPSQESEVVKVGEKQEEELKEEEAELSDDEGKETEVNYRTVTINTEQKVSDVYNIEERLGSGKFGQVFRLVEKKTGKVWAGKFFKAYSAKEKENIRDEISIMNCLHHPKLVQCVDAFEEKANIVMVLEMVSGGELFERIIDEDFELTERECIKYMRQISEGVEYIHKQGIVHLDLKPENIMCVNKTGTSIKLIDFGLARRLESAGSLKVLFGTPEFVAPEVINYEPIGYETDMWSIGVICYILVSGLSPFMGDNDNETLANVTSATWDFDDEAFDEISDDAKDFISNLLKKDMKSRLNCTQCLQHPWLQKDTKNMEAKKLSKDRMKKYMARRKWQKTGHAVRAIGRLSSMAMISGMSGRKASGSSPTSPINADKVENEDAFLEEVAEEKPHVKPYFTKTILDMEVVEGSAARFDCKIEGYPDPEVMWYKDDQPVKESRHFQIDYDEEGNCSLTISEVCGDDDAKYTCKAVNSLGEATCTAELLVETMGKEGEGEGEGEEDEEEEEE

One may read the IC50 as the concentration that inhibits the measured activity by half. For “12-(3-dimethylaminopropyl)-6,7,12,13-tetrahydro-3(9)-hydroxy-9(3)-methoxy- 5,7-dioxo-5H-indolo[2,3-a]pyrrolo[3,4-c]carbazole [Example 2d]”, the values for the IC50 (in assay [1]; on protein kinase C) were 16 nM and 38 nM, respectively. In assay [1], the “ratio of IC50 C-kinase/IC50 MLC-kinase” value is 2.4.
Regarding `CCN(CC)CC(O)Cn1c2ccccc2c2c3c(c4c5ccccc5[nH]c4c21)C(=O)NC3=O` (racemic) [Example 6, (±)-12-(3-Diethylamino-2-hydroxy-1-propyl)-6,7,12,13-tetrahydro-5,7-dioxo-5H-indolo[2,3-a]pyrrolo[3,4-c]-carbazole], in assay [1], the IC50 was 170 nM and the “ratio of IC50 C-kinase/IC50 MLC-kinase” value is 2.9. Further, on protein kinase C, the IC50 turned out to be 500 nM.
In the same order, the values of `CCN(CC)CC(O)Cn1c2ccccc2c2c3c(c4c5ccccc5n(C)c4c21)C(=O)NC3=O` (racemic) [Example 10a, (±)-12-(3-diethylamino-2-hydroxy-1-propyl)-6,7,12,13-tetrahydro-13-methyl-5,7-dioxo-5H-indolo-[2,3-a]pyrrolo[3,4-c]carbazole] are 370 nM, 0.3 and 120 nM.
The like results for `COc1ccc2c(c1)c1c3c(c4c5ccccc5n(C)c4c1n2CC(O)CN(C)C)C(=O)NC3=O` (racemic) [Example 10b, (±)-13-(3-dimethylamino-2-hydroxy-1-propyl)-6,7,12,13-tetrahydro-3-methoxy-12-methyl-5,7-dioxo-5H-indolo[2,3-a]pyrrolo[3,4-c]carbazole] were, in that order, 120 nM, 0.033 and 4 nM.
For `Cn1c2ccccc2c2c3c(c4c5ccccc5n(CCC#N)c4c21)C(=O)NC3=O` [Example 1a, 12-(2-cyanoethyl)-6,7,12,13-tetrahydro-13-methyl-5,7-dioxo-5H-indolo[2,3-a]pyrrolo[3,4-c]carbazole], in assay [1], the IC50 was determined as 55 nM and the “ratio of IC50 C-kinase/IC50 MLC-kinase” value is on record as 0.7. Further, the IC50 on protein kinase C came to 38 nM.
Consider `COc1ccc2c(c1)c1c3c(c4c5ccccc5n(CCC#N)c4c1n2C)C(=O)NC3=O` [Example 1b, 12-(2-cyanoethyl)-6,7,12,13-tetrahydro-3-methoxy-13-methyl-5,7-dioxo-5H-indolo[2,3-a]pyrrolo[3,4-c]-carbazole], for which, in assay [1], the IC50 came to 49 nM and the “ratio of IC50 C-kinase/IC50 MLC-kinase” value is on record as 0.7. Besides, the IC50 on protein kinase C stood at 35 nM.
Consider `COc1ccc2c(c1)c1c3c(c4c5cc(OC)ccc5n(CCC#N)c4c1n2C)C(=O)NC3=O` [Example 1c, 12-(2-cyanoethyl)-6,7,12,13-tetrahydro-3,9-dimethoxy-13-methyl-5,7-dioxo-5H-indolo[2,3-a]pyrrolo[3,4-c]-carbazole], for which, in assay [1], the IC50 is 180 nM and the “ratio of IC50 C-kinase/IC50 MLC-kinase” value is 0.1. The IC50 on protein kinase C amounted to 19 nM.
As for `CC(CC#N)n1c2ccccc2c2c3c(c4c5ccccc5n(C)c4c21)C(=O)NC3=O` (stereo not drawn) [Example 1d, 12-(3-cyano-2-propyl)-6,7,12,13-tetrahydro-13-methyl-5,7-dioxo-5H-indolo[2,3-a]pyrrolo[3,4-c]carbazole], the IC50 was 62 nM in assay [1] and 35 nM on protein kinase C. Also, the “ratio of IC50 C-kinase/IC50 MLC-kinase” value in assay [1] is recorded as 0.6.
For the compound `Cn1c2ccccc2c2c3c(c4c5ccccc5n(CC#N)c4c21)C(=O)NC3=O` [Example 1e, 12-cyanomethyl-6,7,12,13-tetrahydro-13-methyl-5,7-dioxo-5H-indolo[2,3-a]pyrrolo[3,4-c]carbazole], in assay [1], the IC50 stood at 17 nM and the “ratio of IC50 C-kinase/IC50 MLC-kinase” value is on record as 0.8. Further, on protein kinase C, the IC50 stood at 14 nM.
The like results for `Cn1c2ccccc2c2c3c(c4c5ccccc5n(CCCC#N)c4c21)C(=O)NC3=O` [Example 1g, 12-(3-cyanopropyl)-6,7,12,13-tetrahydro-13-methyl-5,7-dioxo-5H-indolo[2,3-a]pyrrolo[3,4-c]carbazole] were, in that order, 22 nM, 1.6 and 36 nM.
The like results for `COc1ccc2c(c1)c1c3c(c4c5ccccc5n(CCCC#N)c4c1n2C)C(=O)NC3=O` [Example 1h, 12-(3-cyanopropyl)-6,7,12,13-tetrahydro-3-methoxy-13-methyl-5,7-dioxo-5H-indolo[2,3-a]pyrrolo[3,4-c]-carbazole] were, in that order, 24 nM, 1 and 24 nM.
The like results for `CN(C)CCCn1c2ccccc2c2c3c(c4c5ccccc5n(C)c4c21)C(=O)NC3=O` [Example 1j, 12-(3-dimethylaminopropyl)-6,7,12,13-tetrahydro-13-methyl-5,7-dioxo-5H-indolo[2,3-a]pyrrolo[3,4-c]-carbazole] were, in that order, 45 nM, 11.1 and 500 nM.
As to `COc1ccc2c(c1)c1c3c(c4c5ccccc5n(C)c4c1n2CCCN(C)C)C(=O)NC3=O` [Example 1k, 13-(3-Dimethylaminopropyl)-6,7,12,13-tetrahydro-3-methoxy-12-methyl-5,1-dioxo-5H-indolo[2,3-a]pyrrolo-[3,4-c]carbazole], in assay [1], the IC50 stood at 61 nM and the “ratio of IC50 C-kinase/IC50 MLC-kinase” value is listed as 7.2. Moreover, the IC50 at protein kinase C is 440 nM.
`Cn1c2ccccc2c2c3c(c4c5ccccc5n(CCCN=[N+]=[N-])c4c21)C(=O)NC3=O` [Example 1l, 12-(3-azidopropyl)-6,7,12,13-tetrahydro-13-methyl-5,7-dioxo-5H-indolo[2,3-a]pyrrolo[3,4-c]carbazole]: in assay [1], the IC50 was found to be 130 nM and the “ratio of IC50 C-kinase/IC50 MLC-kinase” value is given as 0.4. Also, the IC50 at protein kinase C amounted to 50 nM.
For the compound `COc1ccc2c(c1)c1c3c(c4c5cc(Cl)ccc5n(CCC#N)c4c1n2C)C(=O)NC3=O` [Example 1n, 3-chloro-13-(2-cyanoethyl)-6,7,12,13-tetrahydro-9-methoxy-12-methyl-5,7-dioxo-5H-indolo[2,3-a]pyrrolo-[3,4-a]carbazole], the IC50 in assay [1] came out at 32 nM; on protein kinase C, 20 nM. Further, the “ratio of IC50 C-kinase/IC50 MLC-kinase” value in assay [1] is listed as 0.6.
As for `COc1cc2c3c4c(c5c6ccccc6n(C)c5c3n(CCC#N)c2cc1OC)C(=O)NC4=O` [Example 1o, 13-(2-cyanoethyl)-6,7,12,13-tetrahydro-2,3-dimethoxy-12-methyl-5,7-dioxo-5H-1-indolo[2,3-a]pyrrolo-[3,4-c]carbazole], in assay [1], the IC50 was 17 nM and the “ratio of IC50 C-kinase/IC50 MLC-kinase” value is 0.4. The IC50 on protein kinase C is 6.7 nM.
In the case of `COc1ccc2c(c1)c1c3c(c4c5ccccc5n(C)c4c1n2CCCC#N)C(=O)NC3=O` [Example 1q, 13-(3-cyanopropyl)-6,7,12,13-tetrahydro-3-methoxy-12-methyl-5,7-dioxo-5H-indolo[2,3-a]pyrrolo[3,4-c]-carbazole], in assay [1], the IC50 is 32 nM and the “ratio of IC50 C-kinase/IC50 MLC-kinase” value was 0.15. Besides, the concentration for half-maximal inhibition (IC50) on protein kinase C is 4.7 nM.
Take `COc1ccc2c(c1)c1c3c(c4c5cc(OC)ccc5n(CCCC#N)c4c1n2C)C(=O)NC3=O` [Example 1r, 12-(3-cyanopropyl)-6,7,12,13-tetrahydro-3,9-dimethoxy-13-methyl-5,7-dioxo-5H-indolo[2,3-a]pyrrolo-[3,4-c]carbazole]: the IC50 worked out at 29 nM in assay [1] and 17 nM on protein kinase C. In addition, the “ratio of IC50 C-kinase/IC50 MLC-kinase” value in assay [1] was 0.6.
On to `COc1ccc2c(c1)c1c3c(c4c5cc(OC)c(OC)cc5n(CCC#N)c4c1n2C)C(=O)NC3=O` [Example 1s, 13-(2-cyanoethyl)-6,7,12,13-tetrahydro-2,3,9-trimethoxy-12-methyl-5,7-dioxo-5H-indolo[2,3-a]pyrrolo-[3,4-c]carbazole], for which, in assay [1], the IC50 turned out to be 33 nM and the “ratio of IC50 C-kinase/IC50 MLC-kinase” value is on record as 0.7. Moreover, on protein kinase C, the half-inhibitory concentration (IC50) was determined as 24 nM.
With `COc1ccc2c3c4c(c5c6ccccc6n(C)c5c3n(CCC#N)c2c1)C(=O)NC4=O` [Example 1u, 13-(2-cyanoethyl)-6,7,12,13-tetrahydro-2-methoxy-12-methyl-5,7-dioxo-5H-indolo[2,3-a]pyrrolo[3,4-c]-carbazole], in assay [1], the IC50 stood at 540 nM and the “ratio of IC50 C-kinase/IC50 MLC-kinase” value is 8.7. Moreover, the 50% inhibitory concentration (IC50) at protein kinase C is 4700 nM.
In the same order, the values of `CN(C)CCn1c2ccccc2c2c3c(c4c5ccccc5n(C)c4c21)C(=O)NC3=O` [Example 1x, 12-(2-dimethylaminoethyl)-6,7,12,13-tetrahydro-13-methyl-5,7-dioxo-5H-indolo[2,3-a]pyrrolo[3,4-c]carbazole] are 7.2 nM, 7.2 and 52 nM.
As to `COc1ccc2c(c1)c1c3c(c4c5ccccc5n(CCCN(C)C)c4c1n2C)C(=O)NC3=O` [Example 1y, 12-(3-dimethylaminopropyl)-6,7,12,13-tetrahydro-3-methoxy-13-methyl-5,7-dioxo-5H-indolo[2,3-a]pyrrolo-[3,4-c]carbazole], in assay [1], the IC50 is 7.6 nM and the “ratio of IC50 C-kinase/IC50 MLC-kinase” value was 4.1. For the same compound, the IC50 on protein kinase C amounted to 31 nM.
As to `COc1cc2c3c4c(c5c6ccccc6n(C)c5c3n(CCCN(C)C)c2cc1OC)C(=O)NC4=O` [Example 1z, 13-(3-dimethylaminopropyl)-6,7,12,13-tetrahydro-2,3-dimethoxy-12-methyl-5,7-dioxo-5H-indolo[2,3-a]-pyrrolo[3,4-c]carbazole], the IC50 turned out to be 20 nM in assay [1] and 26 nM at protein kinase C. For the same compound, in assay [1], the “ratio of IC50 C-kinase/IC50 MLC-kinase” value is reported as 1.3.
`Cn1c2ccccc2c2c3c(c4c5cc(O)ccc5n(CCC#N)c4c21)C(=O)NC3=O` [Example 2, 13-(2-Cyanoethyl)-6,7,12,13-tetrahydro-3-hydroxy-12-methyl-5,7-dioxo-5H-indolo[2,3-a]pyrrolo[3,4-c]-carbazole]: the IC50 in assay [1] was found to be 19 nM; on protein kinase C it was 24 nM. Also, in assay [1], the “ratio of IC50 C-kinase/IC50 MLC-kinase” value is recorded as 1.3.
